These results are taken from patent publication US10344024B2, “Compounds as ROR gamma modulators” (Glenmark Pharmaceuticals S.A., priority 2015, dated 2019).

In the experiment the target is T1, GST-tagged ROR gamma ligand binding domain (LBD) (Homo sapiens, UniProt P51449).
T1 construct: purchased Invitrogen
T1 sequence (P51449 269-508 limits assumed): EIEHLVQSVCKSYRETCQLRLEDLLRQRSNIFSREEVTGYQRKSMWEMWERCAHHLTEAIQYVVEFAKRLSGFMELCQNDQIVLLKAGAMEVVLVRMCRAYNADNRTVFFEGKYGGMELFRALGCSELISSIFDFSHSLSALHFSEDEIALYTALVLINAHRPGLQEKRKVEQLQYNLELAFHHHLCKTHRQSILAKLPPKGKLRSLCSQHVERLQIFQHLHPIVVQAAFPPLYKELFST
Nature of the experiment: TR-FRET assay for ROR gamma (LanthaScreen co-activator peptide recruitment). The class given is biochemical. The conditions noted are these: for inhibition at 1 µM: compound concentration 1 μM; for inhibition at 1 µM / inhibition at 10 µM: TR-FRET ratio 520/495, percent of control; for inhibition at 10 µM: compound concentration 10 μM; for IC50: from dose response curve, nonlinear regression, read-out: IC50 range. In short, it runs like this:
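Antagonist-mode co-activator recruitment: 10 nM GST-RORγ LBD with compound (4% DMSO final) in 25 mM HEPES pH 7.4, 100 mM NaCl, 5 mM DTT, 0.01% BSA, 1 h at 22° C.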
A general note: TR-FRET usually uses a lanthanide donor and a delayed reading to cut background.

Molecules are shown by their SMILES.

Usually inhibition stands for the change of the read-out against control, counted positive when it falls. One may read the IC50 as the concentration needed to halve the response being measured. For `CC(O)C(F)(F)c1ccc(CC(=O)Nc2ccc(-c3nccnc3-c3ccccc3Cl)cc2)cc1` (centres unmarked) [Example 37, N-(4-(3-(2-Chlorophenyl)pyrazin-2-yl)phenyl)-2-(4-(1,1-difluoro-2-hydroxypropyl)phenyl)acetamide], the inhibition at 1 µM amounted to 71.1%, the inhibition at 10 µM was 73.5% and the 50% inhibitory concentration (IC50) was less than 50 nM.

As for `CCC(F)(F)c1ccc(CC(=O)Nc2ccc(-c3ccncc3-c3ccc(Cl)cc3)cc2)cc1` [Example 46, N-(4-(3-(4-Chlorophenyl)pyridin-4-yl)phenyl)-2-(4-(1,1-difluoropropyl)phenyl)acetamide], the inhibition at 1 µM was determined as 70% and the inhibition at 10 µM is 77.1%.

Take `CCC(F)(F)c1ccc(CC(=O)Nc2ccc(-c3nccnc3-c3ccc(F)cc3C)cc2)cc1` [Example 44, 2-(4-(1,1-Difluoropropyl)phenyl)-N-(4-(3-(4-fluoro-2-methylphenyl)pyrazin-2-yl)phenyl)acetamide]: the inhibition at 1 µM is 76.9%, the inhibition at 10 µM worked out at 84.1% and the IC50 is less than 50 nM.

As to `CCC(F)(F)c1ccc(CC(=O)Nc2ccc(-c3nccnc3NC(C)c3ccccc3)cc2)cc1` (centres unmarked) [Example 58, 2-(4-(1,1-Difluoropropyl)phenyl)-N-(4-(3-((1-phenylethyl)amino)pyrazin-2-yl)phenyl)acetamide], the inhibition at 1 µM was 80.3%, the inhibition at 10 µM was 90.7% and the IC50 fell in the range of 100 to 500 nM.

With `CCC(F)(F)c1ccc(CC(=O)Nc2ccc(-n3nc(C)cc3-c3ccc(F)cc3)cc2)cc1` [Example 20, 2-(4-(1,1-Difluoropropyl)phenyl)-N-(4-(5-(4-fluorophenyl)-3-methyl-1H-pyrazol-1-yl)phenyl)acetamide], the inhibition at 1 µM amounted to 65.5% and the inhibition at 10 µM stood at 78%.

As for `CCC(F)(F)c1ccc(CC(=O)Nc2ccc(-c3nccnc3Oc3ccccc3Cl)cc2)cc1` [Example 87, N-(4-(3-(2-Chlorophenoxy)pyrazin-yl)phenyl)-2-(4-(1,1-difluoropropyl)phenyl)acetamide], the inhibition at 1 µM came to 16.3% and the inhibition at 10 µM was 32.4%.

As to `CCC(F)(F)c1ccc(CC(=O)Nc2ccc(-c3cnccc3-c3ccc(Cl)cc3)cc2)cc1` [Example 35, N-(4-(4-(4-Chlorophenyl)pyridin-3-yl)phenyl)-2-(4-(1,1-difluoropropyl)phenyl)acetamide], the inhibition at 1 µM is 72.8%, the inhibition at 10 µM worked out at 73.3% and the concentration for half-maximal inhibition (IC50) lay in the range of 100 to 500 nM.

Turning to `CCC(F)(F)c1ccc(CC(=O)Nc2ccc(-c3cnn(C(C)(C)C)c3-c3ccc(F)cc3)cc2)cc1` [Example 21, N-(4-(1-(tert-Butyl)-5-(4-fluorophenyl)-1H-pyrazol-4-yl)phenyl)-2-(4-(1,1-difluoropropyl)phenyl)acetamide], the inhibition at 1 µM was 37.4% and the inhibition at 10 µM worked out at 38.3%.

For the compound `CCC(F)(F)c1ccc(CC(=O)Nc2ccc(-c3nccnc3N(C)[C@@H](C)c3ccccc3)cc2)cc1` [Example 62, (S)-2-(4-(1,1-Difluoropropyl)phenyl)-N-(4-(3-(methyl(1-phenylethyl)amino)pyrazin-2-yl)phenyl)acetamide], the inhibition at 1 µM is 65.6% and the inhibition at 10 µM is 84.8%.

Regarding `CC(O)C(F)(F)c1ccc(CC(=O)Nc2ccc(-c3nccnc3N[C@@H](C)c3ccccc3Cl)cc2)cc1` (stereo partly drawn) [Example 68, N-(4-(3-(((S)-1-(2-Chlorophenyl)ethyl)amino)pyrazin-2-yl)phenyl)-2-(4-(1,1-difluoro-2-hydroxypropyl)phenyl)acetamide], the inhibition at 1 µM was found to be 93.5%, the inhibition at 10 µM was 96.9% and the IC50 was less than 50 nM.

On to `CC(O)C(F)(F)c1ccc(CC(=O)Nc2ccc(-c3nccnc3-c3cccc(Cl)c3)cc2)cc1` (centres unmarked) [Example 4, N-(4-(3-(3-Chlorophenyl)pyrazin-2-yl)phenyl)-2-(4-(1,1-difluoro-2-hydroxypropyl)phenyl)acetamide], for which the inhibition at 1 µM worked out at 60.7%, the inhibition at 10 µM stood at 77.8% and the half-maximal inhibitory concentration (IC50) is greater than 500 nM.

In the case of `CCC(F)(F)c1ccc(CC(=O)Nc2ccc(-n3nc(C(F)(F)F)cc3-c3ccccc3Cl)cc2)cc1` [Example 29, N-(4-(5-(2-Chlorophenyl)-3-(trifluoromethyl)-1H-pyrazol-1-yl)phenyl)-2-(4-(1,1-difluoropropyl)phenyl)acetamide], the inhibition at 1 µM worked out at 77.1%, the inhibition at 10 µM came to 79.8% and the concentration for half-maximal inhibition (IC50) was less than 50 nM.

For the compound `CCC(F)(F)c1ccc(CC(=O)Nc2ccc(-c3nccnc3N[C@@H](C)c3ccc(C)cc3C)cc2)cc1` [Example 69, (S)-2-(4-(1,1-Difluoropropyl)phenyl)-N-(4-(3-((1-(2,4-dimethylphenyl)ethyl)amino)pyrazin-2-yl)phenyl)acetamide], the inhibition at 1 µM amounted to 97%, the inhibition at 10 µM was found to be 97.1% and the concentration for half-maximal inhibition (IC50) is less than 50 nM.

`CCC(F)(F)c1ccc(CC(=O)Nc2ccc(-c3nccnc3-c3ccc(C)cc3)cc2)cc1` [Example 13, 2-(4-(1,1-Difluoropropyl)phenyl)-N-(4-(3-(p-tolyl)pyrazin-2-yl)phenyl)acetamide]: the inhibition at 1 µM was determined as 82.7%, the inhibition at 10 µM worked out at 84.4% and the IC50 was less than 50 nM.

On to `CCC(F)(F)c1ccc(CC(=O)Nc2ccc(-c3nccnc3N(C)Cc3ccccc3)cc2)cc1` [Example 56, N-(4-(3-(Benzyl(methyl)amino)pyrazin-2-yl)phenyl)-2-(4-(1,1-difluoropropyl)phenyl)acetamide], for which the inhibition at 1 µM was 73.4%, the inhibition at 10 µM was 85.8% and the IC50 was 100 to 500 nM.

On to `CC(O)C(F)(F)c1ccc(CC(=O)Nc2ccc(-c3nccnc3NCC3CCCCC3)cc2)cc1` (centres unmarked) [Example 71, N-(4-(3-((Cyclohexylmethyl)amino)pyrazin-2-yl)phenyl)-2-(4-(1,1-difluoro-2-hydroxypropyl)phenyl)acetamide], for which the inhibition at 1 µM was 20.5% and the inhibition at 10 µM stood at 73.7%.

Regarding `CCC(F)(F)c1ccc(CC(=O)Nc2ccc(-c3nccnc3OC(C)c3ccccc3)cc2)cc1` (centres unmarked) [Example 76, 2-(4-(1,1-Difluoropropyl)phenyl)-N-(4-(3-(1-phenylethoxy)pyrazin-2-yl)phenyl)acetamide], the inhibition at 1 µM is 78.1%, the inhibition at 10 µM stood at 87.5% and the half-maximal inhibitory concentration (IC50) was 100 to 500 nM.

Take `Cc1noc(C)c1CCOc1nccnc1-c1ccc(NC(=O)Cc2ccc(C(F)(F)C(C)O)cc2)cc1` (centres unmarked) [Example 90, 2-(4-(1,1-Difluoro-2-hydroxypropyl)phenyl)-N-(4-(3-(2-(3,5-dimethylisoxazol-4-yl)ethoxy)pyrazin-2-yl)phenyl)acetamide]: the inhibition at 1 µM worked out at 90.7%, the inhibition at 10 µM was 93.9% and the IC50 is less than 50 nM.

Turning to `CCC(F)(F)c1ccc(CC(=O)Nc2ccc(-c3nccnc3-c3ccccc3C)cc2)cc1` [Example 31], the inhibition at 1 µM was found to be 77.7%, the inhibition at 10 µM turned out to be 81.7% and the IC50 is less than 50 nM.

For the compound `Cc1ncsc1CCOc1nccnc1-c1ccc(NC(=O)Cc2ccc(C(F)(F)C(C)O)cc2)cc1` (centres unmarked) [Example 92, 2-(4-(1,1-Difluoro-2-hydroxypropyl)phenyl)-N-(4-(3-(2-(4-methylthiazol-5-yl)ethoxy)pyrazin-2-yl)phenyl)acetamide], the inhibition at 1 µM stood at 83.5%, the inhibition at 10 µM was 88% and the IC50 lay within 50 to 100 nM.

Take `CC(O)C(F)(F)c1ccc(CC(=O)Nc2ccc(-c3nccnc3N3CCOCC3)cc2)cc1` (centres unmarked) [Example 19, 2-(4-(1,1-Difluoro-2-hydroxypropyl)phenyl)-N-(4-(3-morpholinopyrazin-2-yl)phenyl)acetamide]: the inhibition at 1 µM is 42.2% and the inhibition at 10 µM was determined as 48.8%.

Consider `CCC(F)(F)c1ccc(CC(=O)Nc2ccc(-c3nccnc3N3C[C@@H](C)O[C@@H](C)C3)cc2)cc1` [Example 36, 2-(4-(1,1-Difluoropropyl)phenyl)-N-(4-(3-((25,6R)-2,6-dimethylmorpholino)pyrazin-2-yl)phenyl)acetamide], for which the inhibition at 1 µM turned out to be 2.6% and the inhibition at 10 µM came to 8.3%.

For `CCC(F)(F)c1ccc(CC(=O)Nc2ccc(-c3nccnc3OC(C)c3ccccc3C3CC3)cc2)cc1` (centres unmarked) [Example 81, N-(4-(3-(1-(2-Cyclopropylphenyl)ethoxy)pyrazin-2-yl)phenyl)-2-(4-(1,1-difluoropropyl)phenyl)acetamide], the inhibition at 1 µM turned out to be 83.2%, the inhibition at 10 µM was determined as 88.3% and the IC50 is 100 to 500 nM.

As for `CC(O)C(F)(F)c1ccc(CC(=O)Nc2ccc(-c3nccnc3N3CC(OCc4ccccc4)C3)cc2)cc1` (centres unmarked) [Example 94, N-(4-(3-(3-(Benzyloxy)azetidin-1-yl)pyrazin-2-yl)phenyl)-2-(4-(1,1-difluoro-2-hydroxypropyl)phenyl)acetamide], the inhibition at 1 µM is 15.8% and the inhibition at 10 µM turned out to be 45.6%.

For `CCC(F)(F)c1ccc(CC(=O)Nc2ccc(-c3ncccc3-c3ccccc3Cl)cc2)cc1` [Example 30, N-(4-(3-(2-Chlorophenyl)pyridin-2-yl)phenyl)-2-(4-(1,1-difluoropropyl)phenyl)acetamide], the inhibition at 1 µM came to 81.3%, the inhibition at 10 µM amounted to 82.5% and the half-inhibitory concentration (IC50) is less than 50 nM.

On to `CCC(F)(F)c1ccc(CC(=O)Nc2ccc(-c3nccnc3-c3cnn(C)c3)cc2)cc1` [Example 23, 2-(4-(1,1-Difluoropropyl)phenyl)-N-(4-(3-(1-methyl-1H-pyrazol-4-yl)pyrazin-2-y1)phenyl)acetamide], for which the inhibition at 1 µM was 36.6% and the inhibition at 10 µM is 68.6%.
